Source: article PMC8507260, “A2E-induced inflammation and angiogenesis in RPE cells in vitro are modulated by PPAR-α, -β/δ, -γ, and RXR antagonists and by norbixin” (Aging (Albany NY), 2021)

Experiments:
PPAR-γ = target: T1, PPAR-γ (Homo sapiens, UniProt P37231); experiment: Competition binding to PPAR-γ against [3H]rosiglitazone (Eurofins Cerep); design: Eurofins Cerep (contract laboratory that ran the assay); settings: competition with [3H]rosiglitazone
T1 sequence (P37231 1-505): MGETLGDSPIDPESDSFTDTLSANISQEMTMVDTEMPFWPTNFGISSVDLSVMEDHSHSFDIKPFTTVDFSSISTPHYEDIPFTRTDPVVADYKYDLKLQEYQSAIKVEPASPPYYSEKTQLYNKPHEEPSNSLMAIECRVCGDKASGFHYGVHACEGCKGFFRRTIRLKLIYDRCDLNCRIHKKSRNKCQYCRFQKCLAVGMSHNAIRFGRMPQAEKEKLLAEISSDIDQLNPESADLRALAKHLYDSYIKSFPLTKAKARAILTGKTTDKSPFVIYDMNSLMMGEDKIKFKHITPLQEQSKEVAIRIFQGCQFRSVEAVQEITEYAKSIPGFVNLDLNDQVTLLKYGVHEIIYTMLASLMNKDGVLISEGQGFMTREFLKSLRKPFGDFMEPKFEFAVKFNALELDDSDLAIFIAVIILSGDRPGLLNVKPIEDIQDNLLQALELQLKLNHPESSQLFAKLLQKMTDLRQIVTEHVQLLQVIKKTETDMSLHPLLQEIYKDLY
Description: The binding and activity of norbixin on PPARs remains controversial, thus, firstly, we performed competition experiments in vitro between norbixin and [^3H] GW7647, an agonist of PPAR-α, and [^3H] rosiglitazone, an agonist of PPAR-γ. […] Secondly, we tested whether norbixin could induce the transactivation of PPAR-α, -β/δ or -γ in the context of RPE cells in vitro by co-transfecting porcine RPE cells with a plasmid expressing each of the full-length PPAR isoforms and a plasmid expressing luciferase under the control of the PPAR response element. […] Then, we wanted to determine if norbixin could modulate the transactivation of PPAR isoforms induced by specific agonists.
Binding studies of A2E and norbixin to RXR-α and PPAR-α and γ were performed in vitro by an external laboratory (Eurofins Cerep, Celle L’Evescault, France) through competition experiments between A2E or norbixin and [^3H]9-cis-retinoic acid as the natural ligand of RXR-α, [^3H]GW7647 an agonist of PPAR-α and [^3H]Rosiglitazone an agonist of PPAR-γ.

RXR = experiment: Endogenous RXR transactivation, luciferase reporter in porcine RPE cells; format: cell-based
Protocol: (§1) Pig eyes were obtained from a local slaughterhouse and transported to the laboratory in ice-cold Ringer solution. After removal of the anterior segment of the eye, the vitreous and neural retina was separated from the RPE and removed. The eyecup was washed twice with phosphate buffer saline (PBS), filled with trypsin (0.25% in PBS) and incubated at 37°C for 1.5 h. RPE cells were harvested by gently pipetting, centrifuged to remove trypsin and re-suspended in Dulbecco’s Modified Eagle Medium (DMEM) supplemented with 20% (v/v) foetal-calf serum (DMEM20%FCS) and 0.1% gentamycin. Cells were seeded into 60 mm diameter Petri dishes, cultured in an atmosphere of 5% CO2/95% air at 37°C, and supplied with fresh medium after 24 hours and 4 days in vitro. For experiments aimed at measuring mRNA or protein expression in RPE, cells were trypsinized after one week in culture and transferred to 24-well or 6-well plates at a density of 1.5 × 10^5 cells/cm^2 in DMEM2%FCS. Norbixin or agonists were added to the medium 24 h after seeding, and antagonists were added to the medium 24 h later. A2E treatment was performed during 19 h before cellular sample preparation. All the drugs used in these experiments were prepared as stock solutions in DMSO.
After one week in culture, cells were trypsinized and transferred to a 96-well plate at a density of 6 × 10^4 cells/cm^2 in DMEM2%FCS. The next day, cells were transfected using the Cignal Reporter Assay Kits for PPAR, RXR, AP-1 and NF-κB, according to the manufacturer’s specifications. To measure the specific activation of PPAR isoforms, cells were also co-transfected with PPAR-α, PPAR-β/δ or PPAR-γ expression vectors. Transfection was performed with Lipofectamine and Plus Reagent in serum-free medium. 3 h after the transfection, the medium was replaced and treatments with the molecules to assay were performed. Luciferase activity was measured the next day using the Dual-Luciferase Reporter Assay System. The measurements were performed with a luminometer (Infinite M1000 from Tecan, Mannedorf, Switzerland). Firefly: Renilla activity ratios were calculated for each condition and ratios from transcription factor-responsive reporter transfections were divided by ratios from negative control transfections to obtain relative luciferase unit, as described by the manufacturer. At least 3 independent transfections were performed in triplicate for each condition.

IL-6 = IL-6 mRNA expression by quantitative RT-PCR in porcine RPE cells; format: cell-based; settings: T007907 10 μM
Protocol: as §1
Total RNA was extracted using the NucleoSpin® RNA kit according to manufacturer’s instructions. RT of 500 ng of RNA was performed using the SuperScript III Reverse Transcriptase following the manufacturer’s instructions. Five ng of cDNA were amplified using the SYBR GREEN real-time PCR method. PCR primers for target genes and housekeeping gene GAPDH were designed using Primer3Plus Bioinformatic software (Table 2). The RT-PCR using the StepOne Plus (Life Technologies, Carlsbad, CA, USA) consisted of incubation at 50°C for 5 min followed by 40 cycles of 95°C for 15 s and of 60°C for 1 min. The reaction was completed by a melt curve stage at 95°C for 15 s, 60°C for 1 min, 95°C for 15 s and a final step at 60°C for 15 s. The relative mRNA expression was calculated using the comparative threshold method (Ct-method) with GAPDH for normalization. All experimental conditions were processed in triplicate and each experiment was done at least 3 times.

Compound	IC50 (PPAR-γ) [µM]	Kd (PPAR-γ) [µM]	minimal concentration inducing transactivation of endogenous RXRs (RXR; dose-response, porcine RPE cells) [µM]	effect of the compound alone on IL-6 mRNA expression (IL-6; vs DMSO control)	inhibition of RXR transactivation induced by A2E (RXR; A2E 20 μM, NBX 20 μM, HX531 5 μM) [%]	inhibition of RXR transactivation induced by HX630 (RXR; HX630 5 μM, NBX 20 μM)	transactivation of RXRs by the compound alone (RXR; HX630 5 μM, NBX 20 μM, vs DMSO control)	reduction of IL-6 mRNA expression induced by A2E (IL-6; NBX 20 μM with A2E 30 μM, MK886 1 μM, GSK3787 1 μM, HX531 5 μM with A2E 20 μM) [%]
CC(C=CC1=C(C)CCCC1(C)C)=CC=CC(C)=Cc1cc(C=CC=C(C)C=CC2=C(C)CCCC2(C)C)cc[n+]1CCO [A2E, N-retinylidene-N-retinylethanolamine]	25.5	14	20	induces the expression	–	–	–	–
CC(/C=C/C=C(C)/C=C/C(=O)O)=C\C=C\C=C(C)\C=C\C=C(C)\C=C\C(=O)O (stereo in doubt) [norbixin, 9’-cis-norbixin]	1.9	1	–	–	49	did not inhibit	did not induce the transactivation	145
